Measurements from patent US20210181109A1 (FUJIFILM Corporation, priority 2018, published 2021).
Where two headings read alike, the source gives them in different places.

Legend:
[1] = NAC depletion percent, HPLC-UV detection (281 nm); conditions: Reference (UV method)
In short: (§1)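 NAC at 5 μmol/L in pH 8.0 phosphate buffer reacted with test substance (1 mmol/L stock in water, acetonitrile, acetone or 5% DMSO/acetonitrile) 24 h at 25 °C in the dark, n=3. Stopped with TFA (0.5% final); unreacted NAC quantified by HPLC, depletion percent calculated against blank without test substance.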

[2] = cited from earlier work
[3] = NAC depletion percent, HPLC-fluorescence detection
In short: as §1

[4] = Average score of NAC and NAL depletion and prediction of skin allergenicity, UV method
In short: (§2)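 Score is the mean of NAC and NAL depletion percentages, rounded at the second decimal place. Test substances classed as allergenic (S) or non-allergenic (NS) from depletion of NAC, NAL, or their average score.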

[5] = NAL depletion percent, HPLC-fluorescence detection
In short: (§3)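 NAL (5 μmol/L, pH 10.2 phosphate buffer) reacted with test substance (1 mmol/L stock in water, acetonitrile, acetone or 5% DMSO/acetonitrile) for 24 h at 25 °C in the dark; stopped with TFA to 0.5%. Unreacted NAL quantified by HPLC (UV or fluorescence), n=3; depletion % relative to substance-free blank.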

[6] = Average score of NAC and NAL depletion and prediction of skin allergenicity, fluorescence method
In short: as §2

[7] = NAL depletion percent, HPLC-UV detection (281 nm); conditions: Reference (UV method)
In short: as §3

[8] = single substance, test substance solution 1 mmol/L
[9] = known values, LLNA-test-based classification, − for non-allergenic substances
[10] = single substance, test substance solution 1 mmol/L, fluorescence method
[11] = single substance, Reference (UV method), criterion average score […]
[12] = single substance, test substance solution 1 mmol/L, Reference (UV method)
[13] = single substance, fluorescence method, criterion average score […]
[14] = Fluorescence method, non-allergenic substance

Row | Compound | NAC depletion (%) [1, 8] | EC3 (%) [2, 9] | NAC depletion (%) [3, 10] | Prediction result [4, 11] | Average score [4, 12] | NAL depletion (%) [5, 10] | Prediction result [6, 13] | Average score [6, 10] | NAL depletion (%) [7, 8] | NAC depletion (%) ([1]; non-allergenic substance) | EC3 (%) ([2]; in vivo) | NAC depletion (%) [3, 14] | Prediction result [4] | NAL depletion (%) [5, 14] | Prediction result [6] | NAL depletion (%) ([7]; non-allergenic substance) | Prediction result ([4]; Reference (UV method), skin allergenicity prediction) | Prediction result ([6]; Fluorescence method, skin allergenicity prediction) | Average score [4] | Average score [6]
1 | Cn1sccc1=O [2-Methyl-2H-isothiazol-3-one] | 94.0% | 1.9% | 98.5% | S (S represents as being an allergenic substance) | 50.5% | 4.6% | S (S represents as being an allergenic substance) | 51.6% | 7.0% |  |  |  |  |  |  |  |  |  |  | 
2 | CC(C)(C)C(=O)CC(=O)C(C)(C)C [2,2,6,6-Tetramethyl-3,5-heptanedione] | 0.5% | 27% | 0.0% | NS (NS represents as being a non-allergenic substance) | 1.1% | 0.0% | NS (NS represents as being a non-allergenic substance) | 0.0% | 1.6% |  |  |  |  |  |  |  |  |  |  | 
3 | CNc1ccc(O)cc1.CNc1ccc(O)cc1.O=S(=O)(O)O [Metol] | 100.0% | 0.8% | 100.0% | S (S represents as being an allergenic substance) | 61.4% | 15.9% | S (S represents as being an allergenic substance) | 57.9% | 22.8% |  |  |  |  |  |  |  |  |  |  | 
4 | ClC(Cl)c1ccccc1 [Benzylidene dichloride] |  |  |  |  |  |  |  |  |  | 0.9% | − | 2.1% | NS (key: S represents as being an allergenic substance; NS represents as being a non-allergenic substance) | 1.4% | NS (key: S represents as being an allergenic substance; NS represents as being a non-allergenic substance) | −0.3% |  |  |  | 
5 | CC(C=O)Cc1ccc(C(C)C)cc1 (stereo not drawn) [Cyclamen aldehyde] | 3.1% | 22% | 12.2% | NS (NS represents as being a non-allergenic substance) | 2.4% | 0.0% | S (S represents as being an allergenic substance) | 6.1% | 1.7% |  |  |  |  |  |  |  |  |  |  | 
6 | NC1=CC(=Nc2ccc(N)cc2)C(N)=CC1=Nc1ccc(N)cc1 [Bandrowski's base] | 100.0% | 0.008% | 100.0% | S (S represents as being an allergenic substance) | 52.9% | 1.7% | S (S represents as being an allergenic substance) | 50.8% | 5.7% |  |  |  |  |  |  |  |  |  |  | 
7 | CCCCCCCCC(=O)O [Nonanoic acid] |  | 21% |  |  |  |  |  |  |  | 0.0% |  | 0.0% |  | 0.0% |  | 1.3% | NS (NS represents as being a non-allergenic substance) | NS (NS represents as being a non-allergenic substance) |  | 
8 | CC(CC=O)CCCC(C)(C)O (stereo not drawn) [Hydroxycitronellal] | 17.5% | 33% | 16.0% | S (S represents as being an allergenic substance) | 9.5% | 0.0% | S (S represents as being an allergenic substance) | 8.0% | 1.5% |  |  |  |  |  |  |  |  |  |  | 
9 | O=c1c(-c2ccccc2)c1-c1ccccc1 [Diphenylcyclopropenone] | 28.7% | 0.0003% | 29.7% | S (S represents as being an allergenic substance) | 17.5% | 2.4% | S (S represents as being an allergenic substance) | 16.0% | 6.3% |  |  |  |  |  |  |  |  |  |  | 
10 | CCO/C=C1\N=C(c2ccccc2)OC1=O [Oxazolone] | 85.3% |  | 92.0% |  |  | 65.5% |  |  | 80.1% |  | 0.003% |  | S (key: S represents as being an allergenic substance; NS represents as being a non-allergenic substance) |  | S (key: S represents as being an allergenic substance; NS represents as being a non-allergenic substance) |  |  |  | 82.7% | 78.8%
11 | Clc1ccccc1 [Chlorobenzene] |  |  |  |  |  |  |  |  |  | 0.0% | − | 1.3% | NS (key: S represents as being an allergenic substance; NS represents as being a non-allergenic substance) | 0.1% | NS (key: S represents as being an allergenic substance; NS represents as being a non-allergenic substance) | 0.7% |  |  |  | 
12 | C=CCc1ccc(OC)cc1 [4-Allylanisole] | 27.0% | 18% | 15.0% | S (S represents as being an allergenic substance) | 15.4% | 0.7% | S (S represents as being an allergenic substance) | 7.9% | 3.9% |  |  |  |  |  |  |  |  |  |  | 
13 | Cn1sc(Cl)cc1=O [5-Chloro-methyl-4-isothiazolin-3-one] | 100.0% | 0.009% | 100.0% | S (S represents as being an allergenic substance) | 58.8% | 9.3% | S (S represents as being an allergenic substance) | 54.7% | 17.7% |  |  |  |  |  |  |  |  |  |  | 
14 | O=C(O)c1ccc2c(c1)C(=O)OC2=O [Trimellitic anhydride] | 1.9% | 0.6% | 0.8% | S (S represents as being an allergenic substance) | 49.4% | 94.2% | S (S represents as being an allergenic substance) | 47.5% | 97.0% |  |  |  |  |  |  |  |  |  |  | 
15 | CCC/C=C/C=O [trans-2-Hexanal] | 80.4% | 5.5% | 97.9% | S (S represents as being an allergenic substance) | 46.3% | 11.4% | S (S represents as being an allergenic substance) | 54.6% | 12.3% |  |  |  |  |  |  |  |  |  |  | 
16 | Sc1nc2ccccc2s1 [2-Mercaptobenzothiazole] | 56.6% | 1.7% | 65.5% | S (S represents as being an allergenic substance) | 28.4% | 0.0% | S (S represents as being an allergenic substance) | 32.7% | 0.3% |  |  |  |  |  |  |  |  |  |  | 
17 | C=C(C)C1CC=C(C=O)CC1 (stereo not drawn) [Perillaldehyde] | 29.1% | 8.1% | 42.4% | S (S represents as being an allergenic substance) | 23.8% | 7.1% | S (S represents as being an allergenic substance) | 24.7% | 18.5% |  |  |  |  |  |  |  |  |  |  | 
18 | O=CCc1ccccc1 [Phenylacetaldehyde] | 22.4% | 3% | 9.5% | S (S represents as being an allergenic substance) | 60.3% | 96.2% | S (S represents as being an allergenic substance) | 52.9% | 98.3% |  |  |  |  |  |  |  |  |  |  | 
19 | CCN(CCNS(C)(=O)=O)c1ccc(N)c(C)c1.CCN(CCNS(C)(=O)=O)c1ccc(N)c(C)c1.O=S(=O)(O)O.O=S(=O)(O)O.O=S(=O)(O)O [CD3] | 76.6% | 0.6% | 100.0% | S (S represents as being an allergenic substance) | 46.6% | 8.1% | S (S represents as being an allergenic substance) | 54.0% | 16.5% |  |  |  |  |  |  |  |  |  |  | 
20 | CC(C=O)c1ccccc1 (stereo not drawn) [2-Phenylpropionaldehyde] | 8.0% | 6.3% | 8.5% | S (S represents as being an allergenic substance) | 6.3% | 7.3% | S (S represents as being an allergenic substance) | 7.9% | 4.6% |  |  |  |  |  |  |  |  |  |  | 
